Assay [1] has as its target T1, thromboxane synthetase enzyme (Rattus norvegicus, UniProt P49430).
T1 construct: from tissue; host or cells: washed blood platelets from Okamoto-Aoki spontaneously hypertensive rats (SHR)
T1 sequence (P49430 1-533): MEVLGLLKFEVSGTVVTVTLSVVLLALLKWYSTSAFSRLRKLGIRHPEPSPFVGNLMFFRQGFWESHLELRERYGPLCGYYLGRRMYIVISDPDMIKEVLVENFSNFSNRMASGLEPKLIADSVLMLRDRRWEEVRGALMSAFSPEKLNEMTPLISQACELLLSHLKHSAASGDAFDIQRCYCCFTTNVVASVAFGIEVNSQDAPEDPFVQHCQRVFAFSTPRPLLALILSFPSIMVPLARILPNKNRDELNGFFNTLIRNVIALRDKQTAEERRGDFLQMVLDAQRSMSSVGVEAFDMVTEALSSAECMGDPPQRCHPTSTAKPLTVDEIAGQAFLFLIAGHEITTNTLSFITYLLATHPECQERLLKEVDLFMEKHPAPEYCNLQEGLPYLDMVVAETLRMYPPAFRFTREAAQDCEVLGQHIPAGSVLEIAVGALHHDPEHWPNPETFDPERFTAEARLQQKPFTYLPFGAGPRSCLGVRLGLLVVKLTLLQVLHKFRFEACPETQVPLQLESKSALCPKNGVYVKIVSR
The experiment in a line: Inhibition of thromboxane (TXB2) formation in washed rat platelets, TXB2 radioimmunoassay. Format: biochemical, Okamoto-Aoki spontaneously hypertensive rats (SHR). As to conditions: Concentration 1x10^-4M, platelet suspension incubated 10 minutes at 37 °C. The method, then: Under urethan anesthesia, […] of arterial blood from Okamoto-Aoki spontaneously hypertensive rats (SHR) (Taconic Farms, Germantown, NY) between 19 and 24 weeks in age is collected in one ml of 3.2% sodium citrate in a polystyrene tube. The blood is diluted with 3 ml of cold saline and centrifuged at room temperature for 15 minutes at 460xg. The platelet rich plasma (PRP) is separated. The platelets are isolated by centrifuging the PRP for 10 minutes at 1060xg and are washed in 4 ml of cold oxygenated Krebs phosphate buffer, pH 7.4. The chilled platelets, recovered from centrifuging at 800xg for 10 minutes, are resuspended in oxygenated Krebs phosphate buffer and diluted to contain 4.5-6.0 x 10⁴ platelets/µ1. The inhibition of thromboxane (TX) formation is studied by determining the concentration of thromboxane B₂ (TXB₂), the stable hydrolysis product of TXA₂. Assay samples, prepared on ice, contain 200 µ1 platelet suspension, 50 µ1 saline, and 50 µ1 vehicle (saline) or drug under study. The samples are incubated for 10 minutes at 37 °C in a metabolic shaker. The reaction is terminated by immersing the tubes in an ice bath and adding 50 µl of 0.5M citric acid. The samples are centrifuged for 10 minutes in a refrigerated centrifuge and the supernatants thus obtained are decanted and stored at -20 °C. The TXB₂ content for each sample is determined by a direct radioimmunoassay (RIA) utilizing a TXB₂ specific RIA kit purchased from New England Nuclear, Boston, MA and expressed as pg TXB₂ formed per minute per sample, from which the percent inhibition of TXB₂ formation is calculated.

The test system of assay [2] is spontaneously hypertensive rats of the Okamoto strain. The experiment in a line: Hypotensive activity in spontaneously hypertensive rats (method of Chan and Poorvin). Format: in vivo. As to conditions: by gavage, 100 mg/kg or less, second identical dose 24 hours later; MABP measured 28 hours after initial dose; average MABP of the rats used 160±1.5 mm of mercury. Here is the method:
The novel compounds of the present invention are active hypotensive agents and were tested for hypotensive activity by the method of P.S. Chan and D. Poorvin, Clinical and Experimental Hypertension, 1 (6), 817-830 (1979). Male, 16 week old, spontaneously hypertensive rats of the Okamoto strain, from Taconic Farms, Germantown, New York, having an average mean arterial blood pressure of 160±1.5 mm of mercury, were used in the test. One to four rats were used per test compound. A rat is dosed by gavage with a test compound suspended in 2% pre-boiled starch at a concentration of 50 mg/ml, at a dose of 100 mg/kg of body weight or less, with 0.9% sodium chloride loading at a dose of 25 ml/kg of body weight. A second identical dose of the test compound, without sodium chloride loading is given 24 hours later. At 28 hours after the initial dose the mean arterial blood pressure (MABP) is measured. The procedure is repeated in a second and third rat when necessary. The results of this test on representative compounds of the present invention appear below in Table II.

For assay [3], the system named is Male mice of the Swiss Webster Strain. Briefly: Calcium chloride-induced arrhythmia in anesthetized mice (survival). Format: in vivo. As to conditions: Mus musculus, iv, Dose = 10 mg/kg i.v.; calcium chloride 200 mg/kg i.v. bolus 5, 15 or 30 minutes after drug; observed 15 minutes; read-out: CaCl2 #Mice Surviving #Mice Tested (converted). The text has this:
(§1) Intravenous administration of high doses of calcium or potassium chloride in animals produces cardiac arrhythmias, cardiac fibrillation and cardiac arrest. Any agent that can prevent these events is considered an antiarrhythmic/antifibrillatory agent. (Meth. and Find Exptl. Clin Pharmacol.2:223-252(1980); Pharmacol, Ther. 24:401-433 (1984); Experimental Cardiac and Antiarrhythmic Drugs, L. Szekeres and Gy. J. Dapp, Akademiai Kiado Preso, Budapest, 9-448 (1971).)
(§2) The method employed is as follows: Male mice of the Swiss Webster Strain (Charles River, Wilmington, MA) weighing 25-35 g are anesthetized with ethyl carbamate (urethan) (1.5g/kg body weight i.p.). A 25-gauge needle attached to PE-20 tubing is inserted into a caudal vein for drug administration. The lead II ECG is recorded by needle electrodes placed subcutaneously in the limbs. All data is collected on a Gould Brush recorder. Animals are observed 5 minutes before drug administration. A 5, 15, or 30 minute period following drug administration is allowed before the bolus injection of calcium chloride, 200 mg/kg i.v. or potassium chloride, 62.5 mg/kg i.v. Control mice receive 4 ml/kg of 0.9% sodium chloride i.v. Mice are observed an additional 15 minutes for arrhythmias, fibrillation, survival or death. Any compound at a dose of less than 20 mg/kg i.v. that protects 3 out of 6 mice from cardiac death in either the potassium or calcium chloride test, is considered active.

Assay [4] shares this test system. Briefly: Potassium chloride-induced arrhythmia in anesthetized mice (survival). Format: in vivo. The settings on record: Mus musculus, iv, Dose = 10 mg/kg i.v.; potassium chloride 62.5 mg/kg i.v. bolus 5, 15 or 30 minutes after drug; observed 15 minutes; read-out: KCl #Mice Surviving #Mice Tested (converted).
From the text: as §1, §2

The text below walks through data of patent EP0446604A2, “Pyridine and related aza heterocycle derivatives as cardiovascular agents” (AMERICAN CYANAMID COMPANY, priority 1990, dated 1991).

The structures appear in SMILES notation.

In the case of `Cc1nc(NCCCn2ccnc2)ccc1C#N` [Example 30, 6-[[3-(1H-Imidazol-1-yl)propyl]amino]-2-methyl-3-pyridinecarbonitrile], the inhibition at 100 µM in assay [1] was found to be 94%. In addition, the “Avg. MABP in mm Hg (No. of Rats)” value in assay [2] is given as 61 (2) mm Hg. Besides, the responders at 10 mg/kg is 16.7% in assay [3] and 100% in assay [4].

The compound `N#Cc1cccnc1NCCCn1ccnc1` [Example 4, 2-[[3-(1H-Imidazol-1-yl)propyl]amino]-3-pyridinecarbonitrile] showed an inhibition at 100 µM in assay [1] of 93%. Moreover, the “Avg. MABP in mm Hg (No. of Rats)” value in assay [2] is given as 117 (4) mm Hg. Moreover, the figures for the responders at 10 mg/kg in assay [3] and in assay [4] were 66.7% and 16.7%, respectively.

`Cc1cc(NCC(C)Cn2ccnc2)nc2ccccc12` (stereo not shown) [Example 88, N-[3-(1H-Imidazol-1-yl)-2-methylpropyl]-4-methyl-2-quinolinamine] yielded an inhibition at 100 µM in assay [1] of 98%. The “Avg. MABP in mm Hg (No. of Rats)” value in assay [2] is recorded as 96 (2) mm Hg. The responders at 10 mg/kg in assay [3] was 16.7%; in assay [4], 83.3%.

Turning to `c1ccc2c(c1)nc(NCCCn1ccnc1)c1ccccc12` [Example 8, N-[3-(1H-Imidazol-1-yl)propyl]-6-phenanthridinamine], testing at 100 µM in assay [1] gave an inhibition of 100%. In addition, in assay [2], the “Avg. MABP in mm Hg (No. of Rats)” value is 103 (2) mm Hg. The responders at 10 mg/kg in assay [3] was 33.3%; in assay [4], 100%.

As to `Cc1cc(NCCCn2ccnc2)nc2c(C)cccc12` [Example 32, N-[3-(1H-Imidazol-1-yl)propyl]-4,8-dimethyl-2-quinolinamine], the inhibition at 100 µM in assay [1] was determined as 98%. Besides, the “Avg. MABP in mm Hg (No. of Rats)” value in assay [2] is recorded as 96 (2) mm Hg. Besides, the responders at 10 mg/kg in assay [3] was 0%; in assay [4], 50%.

Compound `O=[N+]([O-])c1cccnc1NCCCn1ccnc1` [Example 2, N-[3-(1H-Imidazol-1-yl)propyl]-3-nitro-2-pyridinamine] displayed an inhibition at 100 µM in assay [1] of 80%. In addition, the “Avg. MABP in mm Hg (No. of Rats)” value in assay [2] is recorded as 98 (2) mm Hg. The responders at 10 mg/kg in assay [3] is 50%; in assay [4], 66.7%.

Regarding `CC(CNc1nc2ccccc2c2ccccc12)Cn1ccnc1` (stereo not shown) [Example 86, N-[3-(1H-Imidazol-1-yl)-2-methylpropyl]-6-phenanthridinamine], the inhibition at 100 µM in assay [1] amounted to 100%. The “Avg. MABP in mm Hg (No. of Rats)” value in assay [2] was 114 (2) mm Hg. Further, the responders at 10 mg/kg in assay [3] is 16.7%; in assay [4], 50%.

The term inhibition denotes the drop in the measured response relative to a control, in per cent. Read a high inhibition as a response far below the control.
